Target: NA from A/H3N2 (Influenza A virus, UniProt O91745)
Experiment: biochemical
Type: biochemical, seasonal A/H3N2
Settings: for IC50: Table 4, Example 34

Sequence of NA from A/H3N2 (O91745 whole entry, looked up): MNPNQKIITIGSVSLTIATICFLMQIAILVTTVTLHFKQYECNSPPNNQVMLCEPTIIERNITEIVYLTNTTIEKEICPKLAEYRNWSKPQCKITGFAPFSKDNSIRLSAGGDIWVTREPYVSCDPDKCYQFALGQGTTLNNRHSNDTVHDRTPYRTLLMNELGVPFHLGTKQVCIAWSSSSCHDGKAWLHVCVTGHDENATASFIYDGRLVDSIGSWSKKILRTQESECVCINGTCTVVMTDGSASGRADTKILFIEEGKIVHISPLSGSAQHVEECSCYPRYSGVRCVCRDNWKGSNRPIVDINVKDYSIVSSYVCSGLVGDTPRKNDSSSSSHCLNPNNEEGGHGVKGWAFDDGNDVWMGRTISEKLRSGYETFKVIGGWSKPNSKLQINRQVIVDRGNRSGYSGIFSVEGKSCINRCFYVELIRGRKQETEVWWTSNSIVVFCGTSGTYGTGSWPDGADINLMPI

| SMILES | % Inhibition (1 nM) [%] | Inhibition rate, 1 μM [%] | Inhibition rate, 10 μM [%] | IC50 [µM] |
| --- | --- | --- | --- | --- |
| CCC(CC)O[C@@H]1C=C(C(=O)O)C[C@H](NCc2noc(-c3ccc4ccccc4c3)n2)[C@H]1NC(C)=O [Compound S9, (3R,4R,5S)-4-acetamido-5-(((5-(naphthalen-2-yl)-1,2,4-oxadiazol-3-yl)methyl)amino)-3-(pentan-3-yloxy)cyclohex-1-ene-1-carboxylic acid] | 1.5 ± 1.2 |  |  |  |
| CCC(CC)O[C@@H]1C=C(C(=O)O)C[C@H](NCc2cc(-c3ccccc3)on2)[C@H]1NC(C)=O [Compound S24] | 1.6 ± 0.4 |  |  |  |
| CCC(CC)O[C@@H]1C=C(C(=O)O)C[C@H](NC(=O)c2cc(C3CC3)n(-c3ccc(Br)cc3)n2)[C@H]1NC(C)=O [OC-024] |  | 5.84 | 42.68 |  |
| CCC(CC)O[C@@H]1C=C(C(=O)O)C[C@H](NC(=O)c2cnn(-c3ccccc3C)c2)[C@H]1NC(C)=O [OC-016] |  | 12.74 | 38.37 |  |
| CCC(CC)O[C@@H]1C=C(C(=O)O)C[C@H](NC(=O)c2cc(-c3ccc(Cl)cc3)nn2CC2CC2)[C@H]1NC(C)=O [OC-015] |  | 16.52 | 31.50 |  |
| CCC(CC)O[C@@H]1C=C(C(=O)O)C[C@H](NC(=O)c2cnn(-c3ccc(C)cc3)c2)[C@H]1NC(C)=O [OC-010] |  | 8.96 | 52.31 | 43.9 |
| CCC(CC)O[C@@H]1C=C(C(=O)O)C[C@H](NC(=O)c2cc(C3CC3)nn2-c2ccccc2C)[C@H]1NC(C)=O [OC-029] |  | 23.28 | 72.80 | 16.9 |
| CCC(CC)O[C@@H]1C=C(C(=O)O)C[C@H](NC(=O)c2cnn(Cc3ccc(C(F)(F)F)cc3)c2)[C@H]1NC(C)=O [OC-006] |  | −2.25 | 21.72 |  |
| CCC(CC)O[C@@H]1C=C(C(=O)O)C[C@H](NC(=O)c2cc(-c3cccs3)n[nH]2)[C@H]1NC(C)=O [OC-014] |  | 21.57 | 40.02 |  |
| CCC(CC)O[C@@H]1C=C(C(=O)O)C[C@H](NCc2noc(-c3ccccc3C)n2)[C@H]1NC(C)=O [Compound S10, (3R,4R,5S)-4-acetamido-3-(pentan-3-yloxy)-5-(((5-(o-tolyl)-1,2,4-oxadiazol-3-yl)methyl)amino)cyclohex-1-ene-1-carboxylic acid] | 0.5 ± 2.0 |  |  |  |
| CCC(CC)O[C@@H]1C=C(C(=O)O)C[C@H](NC(=O)c2cnn(-c3ccc(OC)cc3)c2)[C@H]1NC(C)=O [OC-022] |  | 6.31 | 34.15 |  |
| CCC(CC)O[C@@H]1C=C(C(=O)O)C[C@H](NC(=O)c2cnn(Cc3cccc(Cl)c3)c2)[C@H]1NC(C)=O [OC-003] |  | 5.74 | 23.88 |  |
| CCC(CC)O[C@@H]1C=C(C(=O)O)C[C@H](NCc2noc(-c3ccccc3)n2)[C@H]1NC(C)=O [Compound S8, (3R,4R,5S)-4-acetamido-3-(pentan-3-yloxy)-5-(((5-phenyl-1,2,4-oxadiazol-3-yl)methyl)amino)cyclohex-1-ene-1-carboxylic acid] | 0.0 ± 2.0 |  |  |  |
| CCC(CC)O[C@@H]1C=C(C(=O)O)C[C@H](NC(=O)c2cc(C3CC3)n(-c3cccc(C)c3)n2)[C@H]1NC(C)=O [OC-023] |  | 6.24 | 34.75 |  |
| CCC(CC)O[C@@H]1C=C(C(=O)O)C[C@H](NCc2ccc(-c3cccc(Cl)c3)o2)[C@H]1NC(C)=O [Compound S19] | 5.5 ± 2.4 |  |  |  |
| CCC(CC)O[C@@H]1C=C(C(=O)O)C[C@H](NCc2noc(-c3c(F)cccc3F)n2)[C@H]1NC(C)=O [Compound S13, (3R,4R,5S)-4-acetamido-5-(((5-(2,6-difluorophenyl)-1,2,4-oxadiazol-3-yl)methyl)amino)-3-(pentan-3-yloxy)cyclohex-1-ene-1-carboxylic acid] | 0.0 ± 2.6 |  |  |  |
| CCC(CC)O[C@@H]1C=C(C(=O)O)C[C@H](NCc2noc(-c3ccccn3)n2)[C@H]1NC(C)=O [Compound S4] | 17.1 ± 2.0 |  |  |  |
| CCC(CC)O[C@@H]1C=C(C(=O)O)C[C@H](NC(=O)c2cnn(Cc3cccc(OC)c3)c2)[C@H]1NC(C)=O [OC-002] |  | 6.12 | 23.37 |  |
| CCC(CC)O[C@@H]1C=C(C(=O)O)C[C@H](NCc2noc(-c3ccc(Br)cc3)n2)[C@H]1NC(C)=O [Compound S5, (3R,4R,5S)-4-acetamido-5-(((5-(4-bromophenyl)-1,2,4-oxadiazol-3-yl)methyl)amino)-3-(pentan-3-yloxy)cyclohex-1-ene-1-carboxylic acid] | 1.7 ± 2.1 |  |  |  |
| CCC(CC)O[C@@H]1C=C(C(=O)O)C[C@H](NC(=O)c2cc(-c3ccc(Cl)cc3)nn2CC2CCC2)[C@H]1NC(C)=O [OC-018] |  | 11.12 | 39.81 |  |

| SMILES | % Inhibition (1 nM) [%] | Inhibition rate, 1 μM [%] | Inhibition rate, 10 μM [%] | IC50 [µM] |
| --- | --- | --- | --- | --- |
| CCC(CC)O[C@@H]1C=C(C(=O)O)C[C@H](NC(=O)c2cc(-c3ccc(OC)cc3)n[nH]2)[C@H]1NC(C)=O [OC-017] |  | 14.83 | 42.02 |  |
| CCC(CC)O[C@@H]1C=C(C(=O)O)C[C@H](NC(=O)c2cc(C3CC3)n(-c3ccc(C(F)(F)F)cc3)n2)[C@H]1NC(C)=O [OC-020] |  | 8.26 | 44.47 |  |
| CCC(CC)O[C@@H]1C=C(C(=O)O)C[C@H](NC(=O)c2cc(C3CC3)n(-c3ccccc3C)n2)[C@H]1NC(C)=O [OC-028] |  | 8.06 | 60.91 | 22.7 |
| CCC(CC)O[C@@H]1C=C(C(=O)O)C[C@H](NC(=O)c2cc(-c3ccccc3)n[nH]2)[C@H]1NC(C)=O [OC-008] |  | 5.84 | 42.81 |  |
| CCC(CC)O[C@@H]1C=C(C(=O)O)C[C@H](NCc2ccc(-c3cc(F)cc(F)c3)o2)[C@H]1NC(C)=O [Compound S17, (3R,4R,5S)-4-Acetamido-5-(((5-(3,5-difluorophenyl)furan-2-yl)methyl)amino)-3-(pentan-3-yloxy)cyclohex-1-ene-1-carboxylic acid] | 3.7 ± 3.8 |  |  |  |
| CCC(CC)O[C@@H]1C=C(C(=O)O)C[C@H](NC(=O)c2cnn(-c3ccc(Cl)cc3)c2)[C@H]1NC(C)=O [OC-026] |  | −0.26 | 25.67 |  |
| CCC(CC)O[C@@H]1C=C(C(=O)O)C[C@H](NC(=O)c2cnn(Cc3ccccc3)c2)[C@H]1NC(C)=O [OC-001] |  | 7.71 | 32.02 |  |
| CCC(CC)O[C@@H]1C=C(C(=O)O)C[C@H](NCc2noc(-c3cc(OC)c(OC)c(OC)c3)n2)[C@H]1NC(C)=O [Compound S11, (3R,4R,5S)-4-acetamido-3-(pentan-3-yloxy)-5-(((5-(3,4,5-trimethoxyphenyl)-1,2,4-oxadiazol-3-yl)methyl)amino)cyclohex-1-ene-1-carboxylic acid] | 3.5 ± 3.1 |  |  |  |
| CCC(CC)O[C@@H]1C=C(C(=O)O)C[C@H](NC(=O)c2cnn(Cc3ccccc3Cl)c2)[C@H]1NC(C)=O [OC-005] |  | −1.46 | 18.88 |  |
| CCC(CC)O[C@@H]1C=C(C(=O)O)C[C@H](NC(=O)c2cc(-c3ccc(C(F)(F)F)cc3)n[nH]2)[C@H]1NC(C)=O [OC-009] |  | 3.44 | 46.76 |  |
| CCC(CC)O[C@@H]1C=C(C(=O)O)C[C@H](NCc2noc(-c3ccc(C(F)(F)F)cc3)n2)[C@H]1NC(C)=O [Compound S2, (3R,4R,5S)-4-acetamido-3-(pentan-3-yloxy)-5-(((5-(4-(trifluoromethyl)phenyl)-1,2,4-oxadiazol-3-yl)methyl)amino)cyclohex-1-ene-1-carboxylic acid] | 8.0 ± 1.7 |  |  |  |
| CCC(CC)O[C@@H]1C=C(C(=O)O)C[C@H](NC(=O)c2cc(C3CC3)nn2-c2ccc(Br)cc2)[C@H]1NC(C)=O [OC-025] |  | 2.19 | 37.17 |  |
| CCC(CC)O[C@@H]1C=C(C(=O)O)C[C@H](NC(=O)c2cc(-c3ccc(F)cc3)n[nH]2)[C@H]1NC(C)=O [OC-012] |  | 33.62 | 56.45 | 11.6 |
| CCC(CC)O[C@@H]1C=C(C(=O)O)C[C@H](NCc2ccc(-c3ccc(OC)c(OC)c3)o2)[C@H]1NC(C)=O [Compound S18, (3R,4R,5S)-4-Acetamido-5-(((5-(3,4-dimethoxyphenyl)furan-2-yl)methyl)amino)-3-(pentan-3-yloxy)cyclohex-1-ene-1-carboxylic acid] | 12.9 ± 1.2 |  |  |  |
| CCC(CC)O[C@@H]1C=C(C(=O)O)C[C@H](NCc2noc(-c3cccs3)n2)[C@H]1NC(C)=O [Compound S1, (3R,4R,5S)-4-acetamido-3-(pentan-3-yloxy)-5-(((5-(thiophen-2-yl)-1,2,4-oxadiazol-3-yl)methyl)amino)cyclohex-1-ene-1-carboxylic acid] | 0.0 ± 2.2 |  |  |  |
| CCC(CC)O[C@@H]1C=C(C(=O)O)C[C@H](NCc2ccc(-c3ccc(F)cc3)o2)[C@H]1NC(C)=O [Compound S15, (3R,4R,5S)-4-Acetamido-5-(((5-(4-fluorophenyl)furan-2-yl)methyl)amino)-3-(pentan-3-yloxy)cyclohex-1-ene-1-carboxylic acid] | 3.2 ± 3.7 |  |  |  |
| CCC(CC)O[C@@H]1C=C(C(=O)O)C[C@H](NCc2ccc(-c3cccc4c3oc3ccccc34)o2)[C@H]1NC(C)=O [Compound S23, (3R,4R,5S)-4-acetamido-5-(((5-(dibenzo[b,d]furan-4-yl)furan-2-yl)methyl)amino)-3-(pentan-3-yloxy)cyclohex-1-ene-1-carboxylic acid] | 10.9 ± 0.7 |  |  |  |
| CCC(CC)O[C@@H]1C=C(C(=O)O)C[C@H](NCc2ccc(-c3cc(Cl)ccc3C)o2)[C@H]1NC(C)=O [Compound S21, (3R,4R,5S)-4-acetamido-5-(((5-(5-chloro-2-methylphenyl)furan-2-yl)methyl)amino)-3-(pentan-3-yloxy)cyclohex-1-ene-1-carboxylic acid] | 4.8 ± 1.1 |  |  |  |
| CCC(CC)O[C@@H]1C=C(C(=O)O)C[C@H](NC(=O)c2cc(-c3ccc(Cl)cc3)n[nH]2)[C@H]1NC(C)=O [OC-011] |  | 14.65 | 50.43 |  |
